“And” between values parts separate entries of the source, which are not always exact repeats. Equal values may be shown once.

One series concerns Hela cells. Nature of the series: Cytotoxicity assay (XTT) on transfected cells. Type of series: cell-based, human. As to conditions: 100 μM. How it is done: Viability measurements were performed on cells transfected and seeded in 96 well plates as described above and incubated with drugs for 24 hours. 0.15 mg/ml of XTT solution (Roche Diagnostics, Meylan, France) were added to each well and the plates incubated for 1 hour at 37° C. The optical density of each well's cell culture supernatant was analysed using a spectrophotometer (at 450 nm with deduction of background signal at 690 nm).

A further series has as its target T1, NS5BΔ21 (Hepatitis C virus genotype 1b, UniProt P26662).
T1 construct: lexA/truncated HCV polymerase lacking the C-terminal 21 amino-acids fusion protein as a bait; expressed in transfected cells; host or cells: Saccharomyces cerevisiae L40, plasmid pVVS468
The class given is cell-based, HCV genotype 1b. Conditions: selective medium lacking histidine, leucine and tryptophane, supplemented with ligand, X-Gal overlay.

The target in the next series is T2, native NS5BΔ21 (Hepatitis C virus genotype 1b, UniProt P26662).
T2 construct: expressed in transfected cells; host or cells: Hela cells, plasmid pVVS478
Put plainly: 3D-Screen-NS5B platform, luciferase reporter, Hela cells, native NS5BΔ21. Type of series: cell-based, HCV genotype 1b. As to conditions: for inhibition of the luciferase signal (in words): native NS5B platform, Hela cells; for IC50: native NS5BΔ21, 3D-sensor N21C272, 24 hours, read-out: IC50 (luciferase inhibition). How it is done:
(§1) Transfections were performed for 2 hours in 100 mm dishes in 2 to 4 million cells with 5 to 20 ug of total DNA complexed to jetPEI (PolyPLus transfection, Illkirch, France) with a N/P ratio of 8 The optimal ratio between the plasmids encoding for the luciferase reporter, the target and the selected 3Dsensor was: 3 ug/1 ug/0.5 ug. Cells were dissociated and 25000 cells per well were seeded in 96 well culture treated plates (BD Biosciences, Erembodegem, Belgium).
Compound library's plates were thawed at room temperature. Drugs were handled by a Genesis workstation (Tecan, Lyon, France) and added to the cells at a 5 uM (in 0.5% DMSO) final concentration. Screening was performed by runs of twenty plates. Hits were identified by measurement of the luciferase activity.
(§2) Cell culture supernatant was discarded and 100 ul of Lysis buffer were added to each well. Following […] of vigorous shaking, the lysate was transferred to white opaque 96 well-plates and 100 ul of Luciferin buffer were added. Chemi-luminescence measurement was performed immediately using a Microlumat LB96 luminometer (Berthold, Thoiry, France) with 1 or 10 sec integration time.
Selected hits were synthesized and tested at concentrations varying between 0.01 uM and 100 uM final concentration so as to determine their IC50 on 3 independent experiments.
3D-sensors confirmed in yeast were further investigated in human cells. Among the reasons of choosing Hela cells figured their wide use, easiness of manipulation and capacity of replicating subgenomic HCV replicons (Zhu et al., 2003; Kato et al., 2005).
To validate whether drug's action on our system was stokiometric or not, Hela cells were transiently transfected with three expression plasmids encoding the reporter gene luciferase, the target protein and the conformation sensitive peptide N21C272. After incubation with increasing amounts of reference drugs cVVS-023476 or cVVS-023477, luciferase expression was measured.

The target of the next series is T3, NS5BΔ21 C316Y mutant (Hepatitis C virus genotype 1b, UniProt P26662, N2735Y).
T3 construct: truncated HCV polymerase lacking the C-terminal 21 amino-acids; expressed in transfected cells; host or cells: Hela cells
Nature of the series: 3D-Screen-NS5B mutant profiling, Hela cells, C316Y. The class given is cell-based, HCV genotype 1b. Conditions: increasing concentrations, 24 hours. How it is done: (§3) Percentages of reporter's inhibition were represented for cells incubated with a specific NS5B inhibitors at increasing concentrations for 24 hours.
as §1, §2
(§4) After incubation for 24 hours with increasing concentrations of cVVS023477 (a compound belonging to the Benzothiadiazin family) or cVVS-023476 (a compound belonging to the Indol N Acetamid family), luciferase expression was measured.

Another series addresses T4, NS5BΔ21 S368A mutant (Hepatitis C virus genotype 1b, UniProt P26662, A2754S/A2757V/K2950R/L2476M/R2673K/S2787A/V2681I).
T4 construct: expressed in transfected cells; host or cells: Hela cells, plasmid pVVS799
Put plainly: 3D-Screen-NS5B mutant profiling, Hela cells, S368A. The class given is cell-based, HCV genotype 1b. As to conditions: increasing concentrations, 24 hours. Here is the method:
as §3, §1, §2, §4

A further series relates to ER. Nature of the series: Yeast two-hybrid spot test, control clone ER + 3D-sensor No 30-2. The class given is cell-based. From the text:
(a) Isolation of peptides interacting with the NS5BΔ21 in the yeast two-hybrid-system. Yeast cells carrying the bait (NS5BΔ21-LexA) were transformed with the prey represented by a library of random peptides (in frame with the viral VP16 activation domain). Colonies growing on selective medium and staining blue allowed the isolation of individual peptides that would specifically interact with the polymerase. (b) Isolation of conformation sensitive peptides. The interacting peptides were then tested in presence of ligands known to induce conformational changes in the bait NS5B. The “3D-sensors” were thus identified as the ones whose binding to the target polymerase was prevented by known anti-NS5B. The corresponding colonies didn't show any expression of the selection or reporter gene. (c) Characterization of NS5BΔ21 “3D-sensors” in a spot test. Here were represented 2 selected yeast colonies: one carrying the ER and its specific peptide called No 30-2 isolated previously and used as a control, the other carrying the NS5BΔ21 and its specific peptide called N21C272. Both clones were spotted on selective medium lacking histidine, leucine and tryptophane, supplemented or not with polymerase ligands and overlayed with an X-Gal staining The NS5BΔ21+N21C272 clone grew on selective medium in the absence of any NS5B ligand and stained positive for LacZ. […]

For another series, the target named is T5, NS5BΔ21 M414T mutant (Hepatitis C virus genotype 1b, UniProt P26662, M2833T).
T5 construct: expressed in transfected cells; host or cells: Hela cells, plasmid pVVS516
Nature of the series: 3D-Screen-NS5B mutant profiling, Hela cells, M414T. As to conditions: increasing concentrations, 24 hours. Type of series: cell-based, HCV genotype 1b. Here is the method:
as §3, §1, §2, §4

Another series deals with T6, native NS4A-NS3 protease (Hepatitis C virus genotype 1b, UniProt P26662, I1158V/V1140I).
T6 construct: the NS3 protease (residues 3-181); expressed in transfected cells; host or cells: Hela cells
Nature of the series: 3D-Screen NS4A-NS3 protease platform, luciferase reporter, Hela cells, native. As to conditions: native NS4A-NS3 protease platform, Hela cells. Type of series: cell-based, HCV genotype 1b.

Series [1] addresses native NS4A-NS3 full length protein (Hepatitis C virus genotype 1b, UniProt P26662). Nature of the series: 3D-Screen NS4A-NS3 full length platform, luciferase reporter, Hela cells, native. The class given is cell-based, HCV genotype 1b. The arrangement: the GSGS linker and the NS3 protease (residues 3-631); expressed in transfected cells. Conditions: native NS4A-NS3 full length platform, Hela cells.
Experimental: (§5) Cell culture supernatant was discarded and 100 ul of Lysis buffer were added to each well. Following 10 nm of vigorous shaking, the lysate was transferred to white opaque 96 well-plates and 100 ul of Luciferin buffer were added. Chemi-luminescence measurement was performed immediately using a Microlumat LB96 luminometer (Berthold, Thoiry, France) with 1 or 10 sec integration time.

Series [2] deals with NS5BΔ21 Indol sensitive mutants. Type of series: cell-based, HCV genotype 1b. How it is done: as §3, §1, §2, §4
Series [3] has as its system NS5B from genotype 1a or 1b. Nature of the series: Genotype profiling with the 3D-Screen platform, 3D-sensor N21I4. The class given is cell-based, HCV genotypes 1a and 1b. As to conditions: Huh-7 cells, genotype 1a versus 1b, increasing amounts. An excerpt: Percentages of luciferase inhibition in the presence of the Indol Acetamid NS5B specific ligand cVVS-023476 were represented for N21 I4 peptide targeting NS5B from genotype 1a and 1b.
HCV variants are classified into six genotypes (from 1 to 6) associated with a lower case letter to indicate the subtype (Le Guillou-Guillemette et al., 2007). Since sensitivity to drugs could vary from one HCV genotype to the other (Manns et al., 2007), the investors tested whether the 3D-Screen platform could be able to discriminate such differences which is highly important for preclinical profiling of drug candidates. The inventors thus verified that the 3D-Sensor N21I4 did interact with the polymerase NS5B from genotypes 1a and 1b in Hela and Huh7 cells in an equivalent way.
Huh-7 cells were transiently transfected with three expression plasmids encoding the reporter gene luciferase, the target NS5B from genotype 1a or 1b and the conformation sensitive peptide N21I4. After incubation with increasing amounts of cVVS-023476, luciferase expression was measured.

Setting [4] is: listed as benzothiadiazidic compound.

Experimental for native NS4A-NS3 protease: as §5
3D-sensors confirmed in yeast were further investigated in Hela cells.

Turning to “N-1-cyclobutyl-4-hydroxyquinolon-3-yl-benzothiadiazin [cVVS-023477]”, the “toxicity (in words)” value in the series on Hela cells is “not toxic”. The “growth on selective medium and LacZ staining of the NS5BΔ21+N21C272 yeast clone” value at NS5BΔ21 is on record as “didn't show any growth”. Moreover, the luciferase inhibition on native NS5BΔ21 (1 uM final concentration, 24 hours, 3D-sensor N21C272, versus DMSO) is 51%; on native NS5BΔ21 (10 uM final concentration, 24 hours, 3D-sensor N21C272, versus DMSO), 90% and 83.2%+/−7.5. Further, the “inhibition of the luciferase signal (in words)” value against native NS5BΔ21 is “strongly reduced”. For the same molecule, at native NS5BΔ21, the half-inhibitory concentration (IC50) was 3200 nM. Also, the “reporter inhibition (in words)” value is “the 50% signal inhibition was not reached” on NS5BΔ21 C316Y mutant; “didn't show any noticeable reporter inhibition” at NS5BΔ21 C316Y mutant (setting [4]); “didn't show any noticeable reporter inhibition” on NS5BΔ21 S368A mutant; “the 50% signal inhibition was not reached” at NS5BΔ21 M414T mutant; “didn't show any noticeable reporter inhibition” on NS5BΔ21 M414T mutant (setting [4]). In addition, the “sensitivity of the control clone (ER + 3D sensor No 30.2 interaction) to ligand” value in the series with ER is on record as “not affected”.

Consider `CCN(CC)C1CCN(C(=O)Cn2c(-c3ccc(Cl)cc3)c(C3CCCCC3)c3ccc(C(=O)O)cc32)CC1` [cVVS-023476, 1-{[6-Carboxy-2-(4-chlorophenyl)-3-cyclohexyl-1H-indol-1-yl-]acetyl}-N,N-diethylpiperidin-4-aminium Chloride], for which the “reporter inhibition (in words)” value (at native NS4A-NS3 protease; in [1]) was “only on the NS5B platform” each time. Besides, 1 µM produced 67% inhibition against native NS5BΔ21 (HeLa, 1 uM final concentration, 24 hours, 3D-sensor N21C272, versus DMSO). Also, testing at 10 µM against native NS5BΔ21 (HeLa, 10 uM final concentration, 24 hours, 3D-sensor N21C272, versus DMSO) gave an inhibition of 82.6%. In addition, the “inhibition of the luciferase signal (in words)” value on native NS5BΔ21 is reported as “strong inhibition”. Besides, the IC50 on native NS5BΔ21 is 300 nM and 200 to 2000 nM; in series [2], 200 to 2000 nM. Besides, the “sensitivity of NS5B from two different genotypes to the drug” value in [3] was “slightly different sensitivity”.
